The values below are quoted from earlier work in US20120141398A1, “HAIR DYE CONTAINING ONE OR MORE EDIBLE OR COSMETIC COLORS” (priority 2010, published 2012).

The structures appear in SMILES notation.

Data set [1] concerns Salmonella typhimurium.
Data set [2] deals with small rat.
Data set [3] has as its system large rat. Particulars: text b11, species not given.

For `Nc1cccc(N)c1` [m-phenylenediamine], in data set [1], the “Ames Test (mutagenicity)” value was “+”.
With `Nc1ccccc1N` [o-phenylenediamine], in data set [1], the “Ames Test (mutagenicity)” value is given as “+”.
On to `Nc1ccccc1O` [2-Aminophenol], for which the “Median Lethal Dose/Kg” value in data set [2] (small rat) was 800 g (small rat) g/Kg.
Consider `CCc1ccc(N)cc1N` [2,4-diamino-ethylbenzene], for which the “Ames Test (mutagenicity)” value in data set [1] was “+”.
`Nc1ccc(OCCO)cc1[N+](=O)[O-]` [4-amino-3-nitro-phenoxyethanol]: the “Ames Test (mutagenicity)” value in data set [1] is “+”.
As for `COc1ccc(N)cc1N` [2,4 diaminoanisole], the “Ames Test (mutagenicity)” value in data set [1] is “+”.
Consider `Nc1ccc(N)cc1` [p-phenylenediamine], for which the median lethal dose in data set [3] was 80 mg/kg. Besides, the “Ames Test (mutagenicity)” value in data set [1] is given as “+”.
As to `Oc1cccc(O)c1` [Resorcinol], in data set [2] (rat, in vivo), the median lethal dose is 200 mg/kg.
As to `Nc1cc([N+](=O)[O-])ccc1O` [2-amino-4-nitrophenolate], in data set [1], the “Ames Test (mutagenicity)” value was “+”.
